# Measured values as given in publication PMC11714206, “Massively Parallel Screening of Toll/Interleukin‐1 Receptor (TIR)‐Derived Peptides Reveals Multiple Toll‐Like Receptors (TLRs)‐Targeting Immunomodulatory Peptides” (Advanced Science, 2024).
# Target: T1, MyD88^TIR (Homo sapiens, UniProt Q99836)
# T1 construct: MyD88 (residues 148–296); 6xHis; made in house; host or cells: E. coli BL21 (DE3)
# Test: T‐Surf phage library (P8 and P3) selection against MyD88^TIR, four rounds, NGS read counts
# Assay type: binding
# Details: for P8_MyD88 Rank (after) / P8_MyD88 Rank (before): P8 library; for Population: 4th round of selection against MyD88 TIR, share of NGS reads; for P3_MyD88 Rank (after) / P3_MyD88 Rank (before): P3 library
# Summary of the method: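 Read counts come from NGS of phage pools enriched over four selection rounds on the plate‐coated TIR domain (5 µg mL^−1). Each round: 1 h phage binding at room temperature after 0.2% BSA blocking, Tween washes, acid elution, amplification in E. coli TG1 with M13KO7 helper.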
# [1] = P8_MyD88: rank by NGS read count after grouping
# [2] = P8_MyD88: rank by NGS read count before grouping
# [3] = selection against MyD88, rank by count after grouping
# [4] = selection against MyD88, rank by count before grouping
# [5] = P8_MyD88: rank by count after grouping
# [6] = P8_MyD88: rank by count before grouping
# [7] = selection against MyD88, rank after grouping
# [8] = selection against MyD88, rank before grouping
# [9] = 4R selection against MyD88, rank after grouping
# [10] = 4R selection against MyD88, rank before grouping
# [11] = selection against MyD88 TIR, rank by count after grouping
# [12] = selection against MyD88 TIR, rank by count before grouping
# [13] = P8_MyD88 pool: P8 T-Surf phage library
# [14] = P3_MyD88: rank by count after grouping
# [15] = P3_MyD88: rank by count before grouping
# T1 sequence (Q99836 148-296): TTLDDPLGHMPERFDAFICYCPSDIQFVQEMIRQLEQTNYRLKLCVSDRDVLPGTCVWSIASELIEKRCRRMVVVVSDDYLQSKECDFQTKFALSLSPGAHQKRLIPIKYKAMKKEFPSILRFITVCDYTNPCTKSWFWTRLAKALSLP
sequence,measurement,setting,value
LGYDWIVWAYFVGIED,Rank (after),[1],894
same,Rank (before),[2],3219
LGYHCHDREYFVGIED,P8_MyD88 Rank (after),[3],717
same,P8_MyD88 Rank (before),[4],3311
LGYHCMDWEYFVGIED,Rank (after),[5],390
same,Rank (before),[6],3228
LGYHGIDWVYFGGIED,P8_MyD88 Rank (after),[7],565
same,P8_MyD88 Rank (before),[8],3316
LGYHGLIGSILWALK,P8_MyD88 Rank (after),[9],618
same,P8_MyD88 Rank (before),[10],3317
LGYHLIVWEYFVGIED,P8_MyD88 Rank (after),[3],744
same,P8_MyD88 Rank (before),[4],3227
LGYHRIDWEYCVGIED,Rank (after),[1],1020
same,Rank (before),[2],3318
LGYHWEYWVYFVGIED,Rank (after),[1],1000
same,Rank (before),[2],3237
LGYHWFDWVYFVGIED,P8_MyD88 Rank (after),[7],523
same,P8_MyD88 Rank (before),[8],3329
LGYHWIAWECFVGIED,Rank (after),[5],426
same,Rank (before),[6],3247
LGYHWIDLGYFVGIED,P8_MyD88 Rank (after),[3],767
same,P8_MyD88 Rank (before),[4],3249
LGYHWIDWAYFVGIEE,P8_MyD88 Rank (after),[11],242
same,P8_MyD88 Rank (before),[12],3250
LGYHWIDWAYSVGIED,P8_MyD88 Rank (after),[3],750
same,P8_MyD88 Rank (before),[4],3251
LGYHWIDWEDFVGIEN,Rank (after),[1],919
same,Rank (before),[2],3280
LGYHWIDWENLVGFED,P8_MyD88 Rank (after),[9],630
same,P8_MyD88 Rank (before),[10],3283
LGYHWIDWEYFEGIAD,Rank (after),[1],928
same,Rank (before),[2],3268
LGYHWIDWEYFV,Population,[13],0.0274%
LGYHWIDWEYFVALK,P8_MyD88 Rank (after),[11],235
same,P8_MyD88 Rank (before),[12],599
LGYHWIDWEYFVGIEDPIT,P8_MyD88 Rank (after),[9],660
same,P8_MyD88 Rank (before),[10],3261
LGYHWIDWEYFVGIK,Rank (after),[1],874
same,Rank (before),[2],3264
LGYHWIDWEYFVGSED,Population,[13],0.00655%
LGYHWIDWEYYVGIEN,Rank (after),[1],992
same,Rank (before),[2],3275
LGYHWIDWEYYVGTED,Rank (after),[5],440
same,Rank (before),[6],3301
LGYHWIDWSILWALK,P8_MyD88 Rank (after),[11],231
same,P8_MyD88 Rank (before),[12],409
LGYHWIEWEDFVVIED,Rank (after),[1],872
same,Rank (before),[2],3293
LGYHWIGWEYCVGIED,P8_MyD88 Rank (after),[7],482
same,P8_MyD88 Rank (before),[8],3246
LGYHWIVWEYFVGIDD,Rank (after),[5],421
same,Rank (before),[6],3244
LGYHWIVWEYLVGIKD,P8_MyD88 Rank (after),[9],652
same,P8_MyD88 Rank (before),[10],3245
LGYHWKEWEHFVGIED,Rank (after),[1],1028
same,Rank (before),[2],3310
LGYHWLDWEYFVSIED,Rank (after),[5],451
same,Rank (before),[6],3240
LGYHWLNWESFVGIED,P8_MyD88 Rank (after),[7],547
same,P8_MyD88 Rank (before),[8],3345
LGYHWMEWEYVVGIED,Rank (after),[1],960
same,Rank (before),[2],3299
LGYHWMGWEYFVGIED,P8_MyD88 Rank (after),[7],560
same,P8_MyD88 Rank (before),[8],3298
LGYHWNDGEYFVGIKD,P8_MyD88 Rank (after),[7],489
same,P8_MyD88 Rank (before),[8],3306
LGYHWNDREYFLDIED,P8_MyD88 Rank (after),[7],536
same,P8_MyD88 Rank (before),[8],3307
LGYHWRDWEYFVGLED,P8_MyD88 Rank (after),[11],280
same,P8_MyD88 Rank (before),[12],3302
LGYHWTDWEYFVGIEA,Rank (after),[5],429
same,Rank (before),[6],3305
LGYHWVDWEDLLSIEE,P8_MyD88 Rank (after),[3],730
same,P8_MyD88 Rank (before),[4],3235
LGYHWVDWEYCVGIED,Rank (after),[5],479
same,Rank (before),[6],3233
LGYHWVDWGCFVGIAD,Rank (after),[1],958
same,Rank (before),[2],3232
LGYHWVVWEYFVGIED,P8_MyD88 Rank (after),[9],594
same,P8_MyD88 Rank (before),[10],3231
LGYISIVRGYFVGIER,P8_MyD88 Rank (after),[7],486
same,P8_MyD88 Rank (before),[8],3337
LGYKRIDWEYFVGIED,P8_MyD88 Rank (after),[7],573
same,P8_MyD88 Rank (before),[8],3354
LGYPWIDWEYYVGIED,P8_MyD88 Rank (after),[7],519
same,P8_MyD88 Rank (before),[8],3226
LGYQCIDWEYFVDIED,P8_MyD88 Rank (after),[9],644
same,P8_MyD88 Rank (before),[10],3332
LGYQGIDGEYFVGIED,P8_MyD88 Rank (after),[9],617
same,P8_MyD88 Rank (before),[10],3328
LGYQLIDWEYFVGIEN,Rank (after),[1],937
same,Rank (before),[2],3319
LGYQWIAGEYFVGIED,Rank (after),[1],1021
same,Rank (before),[2],3320
LGYQWIDWEFFVGIED,P8_MyD88 Rank (after),[3],756
same,P8_MyD88 Rank (before),[4],3321
LGYQWIEWEYFVGIED,P8_MyD88 Rank (after),[11],250
same,P8_MyD88 Rank (before),[12],1186
LGYQWNDWEYFVGIED,Rank (after),[1],957
same,Rank (before),[2],3326
LGYQWNEWEYLVGIEE,P8_MyD88 Rank (after),[7],538
same,P8_MyD88 Rank (before),[8],3327
LGYRLMFWDYFVGIVD,P8_MyD88 Rank (after),[7],548
same,P8_MyD88 Rank (before),[8],3225
LGYRWGDWEYFVGIEE,Rank (after),[1],1017
same,Rank (before),[2],3222
LGYRWIVWEYFVGIED,Rank (after),[5],400
same,Rank (before),[6],3224
LGYRWLDGEYFGGIED,Rank (after),[5],462
same,Rank (before),[6],3223
LGYYWNDWEYVVGIEE,Rank (after),[1],884
same,Rank (before),[2],3218
LIRAPSVHDFRGFVGI,P3_MyD88 Rank (after),[9],672
same,P3_MyD88 Rank (before),[10],2369
LKAESCRQALEKSGKR,P3_MyD88 Rank (after),[9],631
same,P3_MyD88 Rank (before),[10],2533
LKCCYPYFWSKLRYAM,P3_MyD88 Rank (after),[9],612
same,P3_MyD88 Rank (before),[10],2460
LKCGEPYFWSKLRYAM,Rank (after),[14],137
same,Rank (before),[15],2407
LKCGEPYFWSKLRYSI,P3_MyD88 Rank (after),[7],578
same,P3_MyD88 Rank (before),[8],2406
LKEEHCHQALEKAGKL,Rank (after),[14],460
same,Rank (before),[15],2535
LKEESWRRAQEKAGKL,P3_MyD88 Rank (after),[7],531
same,P3_MyD88 Rank (before),[8],2536
LKGGDPYFWSKLRYTM,Rank (after),[14],159
same,Rank (before),[15],2531
LKGGDSYFWSKQPYAL,Rank (after),[14],385
same,Rank (before),[15],2529
LKVDSWRQALEKAGNL,Rank (after),[14],117
same,Rank (before),[15],2469
LKVEAGVRRWKKRAN,Rank (after),[14],114
same,Rank (before),[15],1074
LKVEGWRRALEKAGNL,Rank (after),[14],467
same,Rank (before),[15],2470
LKVEIWLQTLEKAEKP,Rank (after),[14],440
same,Rank (before),[15],2472
LKVENWRQALEQAGKL,P3_MyD88 Rank (after),[11],203
same,P3_MyD88 Rank (before),[12],2526
LKVENWRQAMEKAGKL,Rank (after),[14],176
same,Rank (before),[15],2525
LKVERWRQSLEKAGKL,P3_MyD88 Rank (after),[11],217
same,P3_MyD88 Rank (before),[12],2522
LKVESCRQALEKTGKL,Rank (after),[14],181
same,Rank (before),[15],2473
LKVESWHQAREKAGKL,Rank (after),[14],400
same,Rank (before),[15],2518
LKVESWRDALTAAANLSGW,P3_MyD88 Rank (after),[7],489
same,P3_MyD88 Rank (before),[8],2475
LKVESWRQALAKAGRL,P3_MyD88 Rank (after),[11],197
same,P3_MyD88 Rank (before),[12],2486
LKVESWRQALDELVL,P3_MyD88 Rank (after),[11],261
same,P3_MyD88 Rank (before),[12],1077
LKVESWRQALEKADKL,Population,P3_MyD88 pool: P3 T-Surf phage library,0.00408%
